Consider 1 compound from publication PMC6829536 (International Journal of Molecular Sciences, 2019).

One assay addresses T1, L98A CaFADS (Corynebacterium ammoniagenes, UniProt Q59263, L98A).
T1 construct: made in house; host or cells: E. coli BL21(DE3)
Description: biochemical. It counts as biochemical. As for the experimental part: (§1) Reactions were initiated by the addition of ~20 nM of enzyme. After 1 min incubation at 25 °C, the reactions were stopped by boiling the mixtures for 5 min. The composition of flavins in the supernatant was determined using an Alliance HPLC system (Waters, Milford, MA, USA) equipped with a 2707 autosampler and a HSST3 column (4.6 × 150 mm, 3.5 µm, Waters) preceded by a pre-column (4.6 × 20 mm, 3.5 µm, Waters). The chromatography was developed at 1 mL/min with a 6 min isocratic program of methanol 40% (v/v) in 5 mM ammonium acetate (pH 6.0). Detection of flavins was carried out using a 2475 Multi λ fluorescence detector (Waters), excitation wavelength of 470 nm and emission wavelength of 530 nm. […] The flavinic products of the reaction were identified by their retention times and quantified through their corresponding standard curves obtained under the same conditions. Controls containing free flavins in the absence of the enzyme were treated similarly to reaction samples to discard flavin degradation during RFK activity determination. […] In case of inhibition, the experimental data were fitted to a model describing the substrate inhibition of a bi-substrate mechanism. In these situations, errors in apparent Km and kcat (^appKm and ^appkcat) increased with the inhibition constant (Ki) value getting closer to Km^S. Reaction mixtures were evaluated in triplicates, and final results are expressed as the standard error of the fitted value (value ± SE).

The target in another assay is T2, L98K CaFADS (Corynebacterium ammoniagenes, UniProt Q59263, L98K).
T2 construct: made in house; host or cells: E. coli BL21(DE3)
As to the kind of experiment: biochemical. It counts as biochemical. On the procedure: as §1

The target in another assay is T3, L98W CaFADS (Corynebacterium ammoniagenes, UniProt Q59263, L98W).
T3 construct: made in house; host or cells: E. coli BL21(DE3)
As to the kind of experiment: biochemical. It counts as biochemical. As for the experimental part: as §1

The target of another assay is T4, P56A/P58A CaFADS (Corynebacterium ammoniagenes, UniProt Q59263, P56A/P58A).
T4 construct: made in house; host or cells: E. coli BL21(DE3)
Description: biochemical. It counts as biochemical. As for the experimental part:
as §1

A further assay deals with T5, P56W CaFADS (Corynebacterium ammoniagenes, UniProt Q59263, P56W).
T5 construct: made in house; host or cells: E. coli BL21(DE3)
As to the kind of experiment: biochemical. The assay is classed as biochemical. On the procedure: as §1

For another assay, the target named is T6, P58W CaFADS (Corynebacterium ammoniagenes, UniProt Q59263, P58W).
T6 construct: made in house; host or cells: E. coli BL21(DE3)
As to the kind of experiment: biochemical. It counts as biochemical. As for the experimental part: as §1

For the next assay, the system named is CaFADS variants. As to the kind of experiment: Qualitative detection of RFK, FMNAT and FADpp activities by TLC. The assay is classed as biochemical, Corynebacterium ammoniagenes. The settings on record: all variants, 200 nM enzyme, 50 μM flavin, 0.2 mM ATP, 10 mM MgCl2, pH 7.0, 30 min and 2 h. On the procedure:
RFK and FMNAT activities were qualitatively assayed by the incubation of enzymes with substrates and separation of flavins (substrates and products) from reaction mixtures using TLC on Silica Gel SIL-G-25 plates (20 × 20 cm, thickness 0.25 mm) as previously described. […] Reactions were stopped by boiling the preparations for 5 min. Flavin spots were visualized under UV light.

Another assay deals with T7, WT CaFADS (Corynebacterium ammoniagenes, UniProt Q59263).
T7 construct: made in house; host or cells: Escherichia coli
Conditions: saturating ATP, 20 mM PIPES, 0.8 mM MgCl2, pH 7.0, 25 °C, cited from earlier work.

In general, kcat refers to the maximal rate divided by the concentration of active sites. By Km is commonly meant the concentration of substrate that gives half-maximal velocity.

`Cc1cc2nc3c(=O)[nH]c(=O)nc-3n(C[C@H](O)[C@H](O)[C@H](O)CO)c2cc1C` [RF, Riboflavin]: the Ki on L98A CaFADS worked out at 32 ± 15 µM; on L98K CaFADS it was 41 ± 13 µM; at L98W CaFADS it was 46 ± 20 µM; on P56A/P58A CaFADS it was 54 ± 29 µM; at P56W CaFADS it was 6.5 ± 1.9 µM; at P58W CaFADS, 39 ± 21 µM. In addition, the Ki at WT CaFADS (RF substrate inhibition) was 4.9 ± 3.9 µM. For the same compound, the kcat was 2.3 ± 0.433 s⁻¹ at L98A CaFADS (L98A CaFADS, RF varied, saturating ATP, apparent value, 20 mM PIPES, 0.8 mM MgCl2, pH 7.0, 25 °C); 4.13 ± 0.567 s⁻¹ on L98K CaFADS (L98K CaFADS, RF varied, saturating ATP, apparent value, 20 mM PIPES, 0.8 mM MgCl2, pH 7.0, 25 °C); 2.33 ± 0.35 s⁻¹ on L98W CaFADS (L98W CaFADS, RF varied, saturating ATP, apparent value, 20 mM PIPES, 0.8 mM MgCl2, pH 7.0, 25 °C); 1.3 ± 0.2 s⁻¹ at P56A/P58A CaFADS (P56A/P58A CaFADS, RF varied, saturating ATP, apparent value, 20 mM PIPES, 0.8 mM MgCl2, pH 7.0, 25 °C); 0.75 ± 0.083 s⁻¹ on P56W CaFADS (P56W CaFADS, RF varied, saturating ATP, apparent value, 20 mM PIPES, 0.8 mM MgCl2, pH 7.0, 25 °C); 1.63 ± 0.317 s⁻¹ at P58W CaFADS (P58W CaFADS, RF varied, saturating ATP, apparent value, 20 mM PIPES, 0.8 mM MgCl2, pH 7.0, 25 °C). The kcat at WT CaFADS (RF varied, apparent value) was 6.8 ± 3.33 s⁻¹. On P56W CaFADS (P56W CaFADS vs WT), the “decrease of Km^RF relative to WT” value is “up to 30 fold”. Also, in the assay on CaFADS variants, the “RFK activity (transformation of RF), qualitative” value was “All variants kept the RFK activity”. Moreover, on WT CaFADS (RF varied, apparent value, read-out: Km^RF), the Km was 12 ± 3 µM.
